Measured values reported in patent US10376499B2, “Combination therapy for treatment of resistant bacterial infections” (priority 2014, dated 2019).
Values after ≈ are worked out from the molar mass of the structure shown.

Tested on: A. baumannii
Assay: MIC by broth microdilution (CLSI), panel of 60 A. baumannii clinical isolates (Example 1)

Compound: CN(C)[C@@H]1C(O)=C(C(N)=O)C(=O)[C@@]2(O)C(O)=C3C(=O)c4c(O)cccc4[C@@](C)(O)[C@H]3C[C@@H]12 [TET, tetracycline]
- MIC50 (Acinetobacter baumannii): 16 µg/mL (≈ 36 µM)
- MIC90 (Acinetobacter baumannii): > 32 µg/mL
- MIC (Acinetobacter baumannii, strain ARC593, OXA-98): 2 µg/mL (≈ 4.5 µM)
- MIC (Acinetobacter baumannii, strain ARC2058, OXA-95): 1 µg/mL (≈ 2.25 µM)
- MIC (Acinetobacter baumannii, strain ARC2461, OXA-66, TEM-1): > 32 µg/mL
- MIC (Acinetobacter baumannii, strain ARC2462, TEM-1, OXA-66): > 32 µg/mL
- MIC (Acinetobacter baumannii, strain ARC2598, OXA*, TEM-1, OXA-113): > 32 µg/mL
- MIC (Acinetobacter baumannii, strain ARC2635, OXA-65, OXA-40, TEM-1): 8 µg/mL (≈ 18 µM)
- MIC (Acinetobacter baumannii, strain ARC2636, OXA-65, OXA-40, TEM-1): 16 µg/mL (≈ 36 µM)
- MIC (Acinetobacter baumannii, strain ARC2674, SHV-5, OXA-113): > 32 µg/mL
- MIC (Acinetobacter baumannii, strain ARC2675, SHV-5, OXA-113): 16 µg/mL (≈ 36 µM)
- MIC (Acinetobacter baumannii, strain ARC2681, OXA-40, TEM-1, OXA-132): > 32 µg/mL
- MIC (Acinetobacter baumannii, strain ARC2682, SHV-5, OXA-113): 8 µg/mL (≈ 18 µM)
- MIC (Acinetobacter baumannii, strain ARC2777, OXA-172, TEM-1): 32 µg/mL (≈ 72 µM)
- MIC (Acinetobacter baumannii, strain ARC2778, OXA-40, TEM-1, OXA-65): > 32 µg/mL
- MIC (Acinetobacter baumannii, strain ARC2779 (A. baumannii/calcoaceticus complex), OXA-2, VIM-2): 2 µg/mL (≈ 4.5 µM)
- MIC (Acinetobacter baumannii, strain ARC2780 (A. baumannii/calcoaceticus complex), OXA*, OXA-2, IMP-1): 2 µg/mL (≈ 4.5 µM)
- MIC (Acinetobacter baumannii, strain ARC2782, OXA-66, OXA-23, TEM-1, PER-1): > 32 µg/mL
- MIC (Acinetobacter baumannii, strain ARC2788, OXA-65, TEM-1): 4 µg/mL (≈ 9 µM)
- MIC (Acinetobacter baumannii, strain ARC3484, TEM-1, OXA-23, OXA-64): > 32 µg/mL
- MIC (Acinetobacter baumannii, strain ARC3485, OXA-82): 32 µg/mL (≈ 72 µM)
- MIC (Acinetobacter baumannii, strain ARC3486, OXA-72, OXA-66, TEM-1): > 32 µg/mL
- MIC (Acinetobacter baumannii, strain ARC3487, OXA-20, OXA-58, OXA-66): 16 µg/mL (≈ 36 µM)
- MIC (Acinetobacter baumannii, strain ARC3488, OXA*, OXA-68): > 32 µg/mL
- MIC (Acinetobacter baumannii, strain ARC3489, OXA*, OXA-68): > 32 µg/mL
- MIC (Acinetobacter baumannii, strain ARC3490, TEM-1+, PSE-2, OXA-69): 8 µg/mL (≈ 18 µM)
- MIC (Acinetobacter baumannii, strain ARC3491 (A. baumannii/calcoaceticus complex), OXA-215): 4 µg/mL (≈ 9 µM)
- MIC (Acinetobacter baumannii, strain ARC3492, OXA-40, OXA-132, TEM-1): > 32 µg/mL
- MIC (Acinetobacter baumannii, strain ARC3493, OXA-40, OXA-66): > 32 µg/mL
- MIC (Acinetobacter baumannii, strain ARC3494, OXA-65): 2 µg/mL (≈ 4.5 µM)
- MIC (Acinetobacter baumannii, strain ARC3495, OXA-40, OXA-109): > 32 µg/mL
- MIC (Acinetobacter baumannii, strain ARC3513, TEM-1, OXA-23, OXA-65): 8 µg/mL (≈ 18 µM)
- MIC (Acinetobacter baumannii, strain ARC3515, OXA-64, OXA-58): > 32 µg/mL
- MIC (Acinetobacter baumannii, strain ARC3657, OXA-130): 8 µg/mL (≈ 18 µM)
- MIC (Acinetobacter baumannii, strain ARC3658, OXA-66, PER-1, TEM-1, OXA-23): > 32 µg/mL
- MIC (Acinetobacter baumannii, strain ARC3659, OXA-23, OXA*): 8 µg/mL (≈ 18 µM)
- MIC (Acinetobacter baumannii, strain ARC3882, OXA-23, NDM-1, OXA-10*): 8 µg/mL (≈ 18 µM)
- MIC (Acinetobacter baumannii, strain ARC5073, OXA-23, TEM-1, OXA-64, PER-1): > 32 µg/mL
- MIC (Acinetobacter baumannii, strain ARC5074, GES*, TEM-1, OXA-51): 1 µg/mL (≈ 2.25 µM)
- MIC (Acinetobacter baumannii, strain ARC5075, SHV-5, OXA-113): > 32 µg/mL
- MIC (Acinetobacter baumannii, strain ARC5076, TEM-1, OXA-23, OXA-66): > 32 µg/mL
- MIC (Acinetobacter baumannii, strain ARC5077, OXA*, OXA-72): > 32 µg/mL
- MIC (Acinetobacter baumannii, strain ARC5079, OXA-72, OXA-65): 8 µg/mL (≈ 18 µM)
- MIC (Acinetobacter baumannii, strain ARC5080, OXA-71, OXA-40): 16 µg/mL (≈ 36 µM)
- MIC (Acinetobacter baumannii, strain ARC5081, OXA-94, OXA-23): 2 µg/mL (≈ 4.5 µM)
- MIC (Acinetobacter baumannii, strain ARC5082, OXA-66, OXA-23): > 32 µg/mL
- MIC (Acinetobacter baumannii, strain ARC5083, OXA-66, OXA-23): > 32 µg/mL
- MIC (Acinetobacter baumannii, strain ARC5084, IMP-4(B), OXA-58, OXA-65): 2 µg/mL (≈ 4.5 µM)
- MIC (Acinetobacter baumannii, strain ARC5085, OXA*, TEM-1): > 32 µg/mL
- MIC (Acinetobacter baumannii, strain ARC5086, OXA*, TEM-1, OXA-72, OXA-66): > 32 µg/mL
- MIC (Acinetobacter baumannii, strain ARC5087, OXA-66, OXA-23): > 32 µg/mL
- MIC (Acinetobacter baumannii, strain ARC5088, OXA-20, OXA-58, OXA-66): 16 µg/mL (≈ 36 µM)
- MIC (Acinetobacter baumannii, strain ARC5089, PER*, TEM-1, OXA-23, OXA-66): 4 µg/mL (≈ 9 µM)
- MIC (Acinetobacter baumannii, strain ARC5091, OXA-82, OXA-23): 32 µg/mL (≈ 72 µM)
- MIC (Acinetobacter baumannii, strain ARC5092, OXA-23, OXA-64): 32 µg/mL (≈ 72 µM)

Compound: colistin
- MIC (strain ARC593, OXA-98): 0.5 µg/mL
- MIC (strain ARC2058, OXA-95): 0.5 µg/mL
- MIC (strain ARC2461, OXA-66, TEM-1): 0.125 µg/mL
- MIC (strain ARC2462, TEM-1, OXA-66): 0.125 µg/mL
- MIC (strain ARC2598, OXA*, TEM-1, OXA-113): 0.25 µg/mL
- MIC (strain ARC2635, OXA-65, OXA-40, TEM-1): 0.25 µg/mL
- MIC (strain ARC2636, OXA-65, OXA-40, TEM-1): 0.125 µg/mL
- MIC (strain ARC2674, SHV-5, OXA-113): 0.25 µg/mL
- MIC (strain ARC2675, SHV-5, OXA-113): 0.125 µg/mL
- MIC (strain ARC2681, OXA-40, TEM-1, OXA-132): 0.25 µg/mL
- MIC (strain ARC2682, SHV-5, OXA-113): 0.25 µg/mL
- MIC (strain ARC2777, OXA-172, TEM-1): 0.5 µg/mL
- MIC (strain ARC2778, OXA-40, TEM-1, OXA-65): 0.25 µg/mL
- MIC (strain ARC2779 (A. baumannii/calcoaceticus complex), OXA-2, VIM-2): 0.25 µg/mL
- MIC (strain ARC2780 (A. baumannii/calcoaceticus complex), OXA*, OXA-2, IMP-1): 4 µg/mL
- MIC (strain ARC2782, OXA-66, OXA-23, TEM-1, PER-1): 0.125 µg/mL
- MIC (strain ARC2788, OXA-65, TEM-1): 0.125 µg/mL
- MIC (strain ARC3484, TEM-1, OXA-23, OXA-64): 0.125 µg/mL
- MIC (strain ARC3485, OXA-82): 0.25 µg/mL
- MIC (strain ARC3486, OXA-72, OXA-66, TEM-1): 0.25 µg/mL
- MIC (strain ARC3487, OXA-20, OXA-58, OXA-66): 0.25 µg/mL
- MIC (strain ARC3488, OXA*, OXA-68): 2 µg/mL
- MIC (strain ARC3489, OXA*, OXA-68): 0.25 µg/mL
- MIC (strain ARC3490, TEM-1+, PSE-2, OXA-69): 0.5 µg/mL
- MIC (strain ARC3491 (A. baumannii/calcoaceticus complex), OXA-215): 0.5 µg/mL
- MIC (strain ARC3492, OXA-40, OXA-132, TEM-1): 0.25 µg/mL
- MIC (strain ARC3493, OXA-40, OXA-66): 32 µg/mL
- MIC (strain ARC3494, OXA-65): 0.5 µg/mL
- MIC (strain ARC3495, OXA-40, OXA-109): 0.25 µg/mL
- MIC (strain ARC3513, TEM-1, OXA-23, OXA-65): 1 µg/mL
- MIC (strain ARC3515, OXA-64, OXA-58): 0.25 µg/mL
- MIC (strain ARC3657, OXA-130): 0.5 µg/mL
- MIC (strain ARC3658, OXA-66, PER-1, TEM-1, OXA-23): 0.25 µg/mL
- MIC (strain ARC3659, OXA-23, OXA*): 0.25 µg/mL
- MIC (strain ARC3882, OXA-23, NDM-1, OXA-10*): 0.125 µg/mL
- MIC (strain ARC5073, OXA-23, TEM-1, OXA-64, PER-1): 0.125 µg/mL
- MIC (strain ARC5074, GES*, TEM-1, OXA-51): 0.125 µg/mL
- MIC (strain ARC5075, SHV-5, OXA-113): 0.25 µg/mL
- MIC (strain ARC5076, TEM-1, OXA-23, OXA-66): 0.25 µg/mL
- MIC (strain ARC5077, OXA*, OXA-72): 0.5 µg/mL
- MIC (strain ARC5079, OXA-72, OXA-65): 0.125 µg/mL
- MIC (strain ARC5080, OXA-71, OXA-40): 0.25 µg/mL
- MIC (strain ARC5081, OXA-94, OXA-23): 0.125 µg/mL
- MIC (strain ARC5082, OXA-66, OXA-23): 0.5 µg/mL
- MIC (strain ARC5083, OXA-66, OXA-23): 0.125 µg/mL
- MIC (strain ARC5084, IMP-4(B), OXA-58, OXA-65): 0.125 µg/mL
- MIC (strain ARC5085, OXA*, TEM-1): 1 µg/mL
- MIC (strain ARC5086, OXA*, TEM-1, OXA-72, OXA-66): 0.125 µg/mL
- MIC (strain ARC5087, OXA-66, OXA-23): 0.25 µg/mL
- MIC (strain ARC5088, OXA-20, OXA-58, OXA-66): 0.125 µg/mL
- MIC (strain ARC5089, PER*, TEM-1, OXA-23, OXA-66): 0.125 µg/mL
- MIC (strain ARC5091, OXA-82, OXA-23): 8 µg/mL
- MIC (strain ARC5092, OXA-23, OXA-64): >32 µg/mL
